Consider 22 compounds from paper PMC12135072 (RSC Medicinal Chemistry, 2025).

Assay [1] deals with MCF7 (ATCC – HTB-22, breast carcinoma). Nature of the assay: MTT cell viability assay, MCF7. The following applies: Homo sapiens, MCF7, read-out: IC50 MCF7. In kind it is cell-based. A general note: Tetrazolium assays rely on reduction of a dye to a coloured formazan, in cell work by metabolically active cells.
For assay [2], the system named is A549 (ATCC – CCL-185, lung carcinoma). Briefly: MTT cell viability assay, A549. In kind it is cell-based. Particulars: Homo sapiens, A549, read-out: IC50 A549.
Assay [3] deals with HCT116 (ATCC – CCL-247, colon carcinoma). Nature of the assay: MTT cell viability assay, HCT116. Particulars: Homo sapiens, HCT-116, read-out: IC50 HCT116. In kind it is cell-based.
The test system of assay [4] is MRC5 (ATCC – CCL-171, human diploid fibroblast cell line). Briefly: cells. Particulars: MRC5, read-out: IC50 MRC5.

On to `Cc1cc2c(c(=O)o1)C(c1ccc(-n3cnnn3)cc1)C(C#N)=C(N)O2` (stereo not shown) [Compound 17g, 4-(4-(1H-Tetrazol-1-yl)phenyl)-2-amino-7-methyl-5-oxo-4H,5H-pyrano[4,3-b]pyran-3-carbonitrile], for which the IC50 (usually the concentration at which inhibition is half-maximal) is 39.2 ± 2.71 µM in assay [1], 164 ± 3.26 µM in assay [2], > 200 µM in assay [3] and > 200 µM in assay [4].
For `N#CC1=C(N)Oc2c(c(=O)oc3ccccc23)C1c1ccc(OCc2cn(-c3ccc(Cl)cc3)nn2)cc1` (stereo not shown) [Compound 15b, 2-Amino-4-(4-((1-(4-chlorophenyl)-1H-1,2,3-triazol-4-yl)methoxy)phenyl)-5-oxo-4H,5H-pyrano[3,2-c]chromene-3-carbonitrile], the IC50 in assay [1], in assay [2], in assay [3] and in assay [4] was > 200 µM throughout.
Turning to `Cc1cnn(-c2ccc(C3C(C#N)=C(N)OC4=C3C(=O)CCC4)cc2)c1` (stereo not shown) [Compound 7b, 2-Amino-4-(4-(4-methyl-1H-pyrazol-1-yl)phenyl)-5-oxo-5,6,7,8-tetrahydro-4H-chromene-3-carbonitrile], the IC50 was 24 ± 2.27 µM in assay [1], 147 ± 3.61 µM in assay [2], 163 ± 3.14 µM in assay [3] and > 200 µM in assay [4].
As to `N#CC1=C(N)OC2=C(C(=O)CCC2)C1c1ccc(-n2cc(Br)cn2)cc1` (stereo not shown) [Compound 7d, 2-Amino-4-(4-(4-bromo-1H-pyrazol-1-yl)phenyl)-5-oxo-5,6,7,8-tetrahydro-4H-chromene-3-carbonitrile], the IC50 in assay [1] is 56.1 ± 3.79 µM; in assay [2], 23.6 ± 1.29 µM; in assay [3], 45.7 ± 0.67 µM; in assay [4], > 200 µM.
For `COc1ccc(-n2cc(COc3ccc(C4C(C#N)=C(N)Oc5cc(C)oc(=O)c54)cc3)nn2)cc1` (stereo not shown) [Compound 17e, 2-Amino-4-(4-((1-(4-methoxyphenyl)-1H-1,2,3-triazol-4-yl)methoxy)phenyl)-7-methyl-5-oxo-4H,5H-pyrano[4,3-b]pyran-3-carbonitrile] the same measures were 52.2 ± 1.34 µM, > 200 µM, > 200 µM and > 200 µM.
For `Cc1cncn1-c1ccc(C2C(C#N)=C(N)OC3=C2C(=O)CC(C)(C)C3)cc1` (stereo not shown) [Compound 8c, 2-Amino-7,7-dimethyl-4-(4-(5-methyl-1H-imidazol-1-yl)phenyl)-5-oxo-5,6,7,8-tetrahydro-4H-chromene-3-carbonitrile] the same measures were 83.2 ± 2.11 µM, 133 ± 5.81 µM, 162 ± 6.91 µM and > 200 µM.
Turning to `CCc1nccn1-c1ccc(C2C(C#N)=C(N)OC3=C2C(=O)CC(C)(C)C3)cc1` (stereo not shown) [Compound 8d, 2-Amino-4-(4-(2-ethyl-1H-imidazol-1-yl)phenyl)-7,7-dimethyl-5-oxo-5,6,7,8-tetrahydro-4H-chromene-3-carbonitrile], the IC50 in assay [1] is > 200 µM; in assay [2], 19.8 ± 0.94 µM; in assay [3], 137 ± 5.82 µM; in assay [4], > 200 µM.
Regarding `COc1ccc(-n2cc(COc3ccc(C4C(C#N)=C(N)Oc5c4c(=O)oc4ccccc54)cc3)nn2)cc1` (stereo not shown) [Compound 15e, 2-Amino-4-(4-((1-(4-methoxyphenyl)-1H-1,2,3-triazol-4-yl)methoxy)phenyl)-5-oxo-4H,5H-pyrano[3,2-c]chromene-3-carbonitrile], the IC50 in assay [1], in assay [2], in assay [3] and in assay [4] was > 200 µM each time.
As for `Cc1cc2c(c(=O)o1)C(c1ccc(OCc3cn(-c4ccc(Cl)cc4)nn3)cc1)C(C#N)=C(N)O2` (stereo not shown) [Compound 17b, 2-Amino-4-(4-((1-(4-chlorophenyl)-1H-1,2,3-triazol-4-yl)methoxy)phenyl)-7-methyl-5-oxo-4H,5H-pyrano[4,3-b]pyran-3-carbonitrile], the IC50 was 36.06 ± 0.31 µM in assay [1], 20.4 ± 1.87 µM in assay [2], 47.4 ± 4.13 µM in assay [3] and > 200 µM in assay [4].
As to `N#CC1=C(N)OC2=C(C(=O)CCC2)C1c1ccc(-n2ccc(C(F)(F)F)n2)cc1` (stereo not shown) [Compound 7e, 2-Amino-5-oxo-4-(4-(3-(trifluoromethyl)-1H-pyrazol-1-yl)phenyl)-5,6,7,8-tetrahydro-4H-chromene-3-carbonitrile], the IC50 in assay [1] was 15 ± 0.78 µM; in assay [2] it was 18 ± 0.45 µM; in assay [3] it was 72.2 ± 0.96 µM; in assay [4], > 200 µM.
For `N#CC1=C(N)Oc2c(c(=O)oc3ccccc23)C1c1ccc(OCc2cn(-c3ccc(Br)cc3)nn2)cc1` (stereo not shown) [Compound 15c, 2-Amino-4-(4-((1-(4-bromophenyl)-1H-1,2,3-triazol-4-yl)methoxy)phenyl)-5-oxo-4H,5H-pyrano[3,2-c]chromene-3-carbonitrile] the same measures were > 200 µM, > 200 µM, > 200 µM and 66.9 ± 1.6 µM.
For `N#CC1=C(N)Oc2c(c(=O)oc3ccccc23)C1c1ccc(-n2cnnn2)cc1` (stereo not shown) [Compound 15g, 4-(4-(1H-Tetrazol-1-yl)phenyl)-2-amino-5-oxo-4H,5H-pyrano[3,2-c]chromene-3-carbonitrile] the same measures were > 200 µM, > 200 µM, > 200 µM and > 200 µM.
For `Cc1cc2c(c(=O)o1)C(c1ccc(OCc3cn(-c4ccccc4)nn3)cc1)C(C#N)=C(N)O2` (stereo not shown) [Compound 17a, 2-Amino-7-methyl-5-oxo-4-(4-((1-phenyl-1H-1,2,3-triazol-4-yl)methoxy)phenyl)-4H,5H-pyrano[4,3-b]pyran-3-carbonitrile] the same measures were > 200 µM, 80.5 ± 4.68 µM, > 200 µM and > 200 µM.
In the case of `Cc1cc(C)n(-c2ccc(C3C(C#N)=C(N)OC4=C3C(=O)CCC4)cc2)n1` (stereo not shown) [Compound 7c, 2-Amino-4-(4-(3,5-dimethyl-1H-pyrazol-1-yl)phenyl)-5-oxo-5,6,7,8-tetrahydro-4H-chromene-3-carbonitrile], the IC50 in assay [1] is 22.9 ± 1.31 µM; in assay [2], > 200 µM; in assay [3] it was 194 ± 6.01 µM; in assay [4] it was > 200 µM.
Regarding `N#CC1=C(N)Oc2c(c(=O)oc3ccccc23)C1c1ccc(OCc2cn(-c3ccccc3)nn2)cc1` (stereo not shown) [Compound 15a, 2-Amino-5-oxo-4-(4-((1-phenyl-1H-1,2,3-triazol-4-yl)methoxy)phenyl)-4H,5H-pyrano[3,2-c]chromene-3-carbonitrile], the IC50 in assay [1] was > 200 µM; in assay [2] it was > 200 µM; in assay [3] it was > 200 µM; in assay [4], 146.5 ± 0.53 µM.
Turning to `Cc1cc2c(c(=O)o1)C(c1ccc(OCc3cn(-c4ccc(Br)cc4)nn3)cc1)C(C#N)=C(N)O2` (stereo not shown) [Compound 17c, 2-Amino-4-(4-((1-(4-bromophenyl)-1H-1,2,3-triazol-4-yl)methoxy)phenyl)-7-methyl-5-oxo-4H,5H-pyrano[4,3-b]pyran-3-carbonitrile], the IC50 in assay [1], in assay [2], in assay [3] and in assay [4] was > 200 µM each time.
On to `Cc1ccc(-n2cc(COc3ccc(C4C(C#N)=C(N)Oc5cc(C)oc(=O)c54)cc3)nn2)cc1` (stereo not shown) [Compound 17d, 2-Amino-7-methyl-5-oxo-4-(4-((1-(p-tolyl)-1H-1,2,3-triazol-4-yl)methoxy)phenyl)-4H,5H-pyrano[4,3-b]pyran-3-carbonitrile], for which the IC50 in assay [1], in assay [2], in assay [3] and in assay [4] was > 200 µM in each case.
For the compound `Cc1ccn(-c2ccc(C3C(C#N)=C(N)OC4=C3C(=O)CCC4)cc2)n1` (stereo not shown) [Compound 7a, 2-amino-4-(4-(3-methyl-1H-pyrazol-1-yl)phenyl)-5-oxo-5,6,7,8-tetrahydro-4H-chromene-3-carbonitrile], the IC50 is 190 ± 5.34 µM in assay [1], 89.7 ± 4.38 µM in assay [2], 139 ± 3.89 µM in assay [3] and > 200 µM in assay [4].
As to `Cc1ccc(-n2cc(COc3ccc(C4C(C#N)=C(N)Oc5c4c(=O)oc4ccccc54)cc3)nn2)cc1` (stereo not shown) [Compound 15d, 2-Amino-5-oxo-4-(4-((1-(p-tolyl)-1H-1,2,3-triazol-4-yl)methoxy)phenyl)-4H,5H-pyrano[3,2-c]chromene-3-carbonitrile], the IC50 in assay [1], in assay [2], in assay [3] and in assay [4] was > 200 µM throughout.
Turning to `CC1(C)CC(=O)C2=C(C1)OC(N)=C(C#N)C2c1ccc(-n2cnc(Br)c2)cc1` (stereo not shown) [Compound 8e, 2-Amino-4-(4-(4-bromo-1H-imidazol-1-yl)phenyl)-7,7-dimethyl-5-oxo-5,6,7,8-tetrahydro-4H-chromene-3-carbonitrile], the half-inhibitory concentration (IC50) in assay [1] is 74.87 ± 0.17 µM; in assay [2], 30.6 ± 1.85 µM; in assay [3], 77.6 ± 1.58 µM; in assay [4], > 200 µM.
On to `N#CC1=C(N)Oc2c(c(=O)oc3ccccc23)C1c1ccc(-n2ccnn2)cc1` (stereo not shown) [Compound 15f, 4-(4-(1H-1,2,3-Triazol-1-yl)phenyl)-2-amino-5-oxo-4H,5H-pyrano[3,2-c]chromene-3-carbonitrile], for which the IC50 in assay [1] was determined as 145 ± 2.75 µM; in assay [2], 72.9 ± 2.26 µM; in assay [3] it was 163 ± 5.45 µM; in assay [4], 156 ± 0.48 µM.
In the case of `Cc1cc2c(c(=O)o1)C(c1ccc(-n3ccnn3)cc1)C(C#N)=C(N)O2` (stereo not shown) [Compound 17f, 4-(4-(1H-1,2,3-Triazol-1-yl)phenyl)-2-amino-7-methyl-5-oxo-4H,5H-pyrano[4,3-b]pyran-3-carbonitrile], the IC50 was 30.3 ± 1.73 µM in assay [1], > 200 µM in assay [2], > 200 µM in assay [3] and > 200 µM in assay [4].
